# Where a name gives a salt, the structure may show the parent alone.
# System: diabetic rats exhibiting contrast-induced nephropathy
# Test: Contrast-induced nephropathy (CIN) model in streptozotocin-diabetic rats, contrast agent iomeprol
# Assay type: in vivo, Male Wistar rats
# Description: Effect of Tetracyclic 1H-indeno[1,2-b]pyridine-2(5H)-one analogs on the prophylaxis of contrast induced nephropathy
# Male Wistar rats (150-200 g; Harlan Nossanr) were housed in a controlled environment and provided with standard rodent chow and water.
# After 12 h of fasting, the animals received a single 60 mg/kg intravenous (i.v.) injection of streptozotocin (Sigma, St. Louis, Mo.) in 10 mM sodium citrate buffer, pH 4.5 (see figure showing CIN model). Control non-diabetic animals were fasted and received citrate buffer alone. After 24 h, animals with blood glucose levels greater than 250 mg/dl were considered diabetic. All experiments were performed 10 days following the induction of diabetes. The diabetic state was evaluated daily by determination of the blood glucose levels. Upon the induction of the diabetic state the animals were presenting with a major risk factor pre-disposing the animals to CIN after the administration of contrast media.
# 10 days following the induction of diabetes the rats were anesthetized with 90 mg/kg ketamine i.m. and 10 mg/kg xylazine i.m. and were treated with the contrast agent iomeprol (10 mL/kg injected via the lateral tail vein) or with 0.9% normal saline. The contrast agent used was the low osmolar non-ionic monomer iomeprol (lomeron, 400 mgI mL−1; Bracco SpA, Milan, Italy) with an osmolality of 726±34 mosmol/kg H2O.
# Upon completion of surgical procedures, the animals were randomly allocated to different groups.
# At the indicated time point blood samples were collected via the lateral tail vein into S1/3 tubes containing serum gel. The samples were centrifuged (6000 r.p.m. for 3 min) to separate plasma. All plasma samples were analyzed for biochemical parameters within 24 hours after collection. Plasma urea, plasma and urine concentrations of creatinine were measured as indicators of impaired glomerular function. Plasma concentrations of NGAL (neutrophil gelatinase associated lipocalin) levels and urine αGST (alpha glutathione S-transferase)and NGAL levels were evaluated.
# At postmortem, a […] section of kidney was removed and placed in formalin and processed through to wax. […] sections were cut and stained with hematoxylin and eosin. Histologic assessment of outer medulla damage was examined by an experienced morphologist, who was not aware of the sample identity. The criteria for injury/necrosis were the following: 0=normal histology; 1=minor edema, minor cell swelling; 2=haemorrhage, moderate edema, moderate cells vacuolization and swelling; 3=moderate haemorrhage, moderate edema, moderate cells vacuolization, swelling and chromatin alteration; 4=severe edema, severe cells vacuolization, swelling and chromatin alteration, presence of necrosis spot; 5=severe edema, severe cells vacuolization, swelling and chromatin alteration, severe necrosis.
structure (smiles),measurement,setting,value
"O=c1[nH]c2c(c3c1CCCC3)Cc1c(CN3CC[C@H](F)C3)cccc1-2 [Example 17, (S)-10-((3-fluoropyrrolidin-1-yl)methyl)-3,4,6,11-tetrahydro-1H-indeno[1,2-c]isoquinolin-5(2H)-one mesylate]",kidney histological scores,"outer medulla damage score 0-5, FIG. 4",reduced
same,level of plasma creatinine,"relative to contrast agent alone, FIG. 1",reduces
same,level of plasma NGAL,"relative to contrast agent alone, FIG. 2",reduces
same,level of urine NGAL,"relative to contrast agent alone, FIG. 3",reduces
same,level of urine GST,"relative to contrast agent alone, FIG. 5",reduces
